This experiment deals with T1, BACE2 (Rattus norvegicus, UniProt Q6IE75).
T1 construct: endogenous cellular BACE2 in the Ins1e rat cell line; endogenous in cells; host or cells: INS-TMEM27 (INS1e-derived rat beta-cell line with doxycycline-inducible full-length hTMEM27)
T1 sequence (Q6IE75 63-514): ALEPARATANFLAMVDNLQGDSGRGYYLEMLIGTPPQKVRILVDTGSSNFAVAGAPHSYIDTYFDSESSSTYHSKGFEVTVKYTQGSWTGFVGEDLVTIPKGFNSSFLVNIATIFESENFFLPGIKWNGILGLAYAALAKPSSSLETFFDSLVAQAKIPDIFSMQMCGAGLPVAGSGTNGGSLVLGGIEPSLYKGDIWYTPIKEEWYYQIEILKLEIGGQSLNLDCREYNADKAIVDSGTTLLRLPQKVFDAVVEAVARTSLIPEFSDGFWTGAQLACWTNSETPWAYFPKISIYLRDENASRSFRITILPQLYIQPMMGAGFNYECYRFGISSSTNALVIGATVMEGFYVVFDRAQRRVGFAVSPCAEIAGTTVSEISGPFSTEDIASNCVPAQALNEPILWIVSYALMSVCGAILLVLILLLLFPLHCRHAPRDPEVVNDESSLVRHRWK
The experiment is described as follows: Assay for BACE inhibition by measuring cellular TMEM27 cleavage (INS-TMEM27 cells, ELISA of shed TMEM27). In kind it is cell-based. Particulars: inhibition of human TMEM27 cleavage by endogenous cellular BACE2 in INS1e-derived INS-TMEM27 rat cell line; ELISA of shed TMEM27 in supernatant. The source says:
Assay for […] Inhibition by Measuring Cellular TMEM27 Cleavage
This assay uses the principle of inhibition of human TMEM27 cleavage by endogenous cellular BACE2 in the Ins1e rat cell line and shedding from the cell surface into the culture medium, followed by detection in an ELISA assay. Inhibition of BACE2 prevents the cleavage and shedding in a dose-dependent manner.
The stable cell line “INS-TMEM27” represents an INS1e-derived cell line with inducible expression (using the TetOn system) of full-length hTMEM27 in a doxycycline-dependent manner. The cells were cultured throughout the experiment in RPMI1640+Glutamax (Invitrogen) Penicillin/Streptomycin, 10% Fetal bovine serum, 100 mM pyruvate, […] beta-mercatptoethanol, 100 micrograms/ml G418 and 100 microgram/ml hygromycin and were grown in adherent culture at 37° C. in a standard CO2 cell culture incubator.
INS-TMEM27 cells were seeded in 96-well plates. After 2 days in culture, BACE2 inhibitor was added in a range of concentrations as required by the assay and after a further two hours, doxycycline was added to a final concentration of 500 ng/ml. The cells were incubated for a further 46 hours and the supernatant harvested for detection of shed TMEM27.
An ELISA assay (using a pair of mouse anti-human-TMEM27 antibodies, raised against the extracellular domain of TMEM27) was used for detection of TMEM27 in the culture medium. An IC50 for BACE2 inhibition was calculated using the ELISA readout for each inhibitor concentration with standard curve-fitting software.
The inhibitory activity, given as an IC50 value, of the compounds of Examples 1 to 32 and 34 to 74 were as follows.
A general note: In an ELISA, binding on a coated surface is turned into a signal by an enzyme label.
With `Cc1cc(C(=O)N[C@@H](Cc2ccccc2)[C@H](O)CNCc2cccc(OC(F)(F)F)c2)cc(C(=O)N(C)Cc2ccccn2)c1` [Example 44, N-[(1S,2R)-1-Benzyl-2-hydroxy-3-(3-trifluoromethoxy-benzylamino)-propyl]-5,N′-dimethyl-N′-pyridin-2-ylmethyl-isophthalamide], the IC50 (as a rule, the concentration that inhibits the measured activity by half) turned out to be 49 nM.

`CN(c1cc(C(=O)N[C@@H](Cc2ccccc2)[C@H](O)CNCc2cccc(OC(F)(F)F)c2)cc(C(=O)N2CCCC2c2cccs2)c1)S(C)(=O)=O` (stereo partly drawn) [Example 45, N-[(1S,2R)-1-Benzyl-2-hydroxy-3-(3-trifluoromethoxy-benzylamino)-propyl]-3-(methanesulfonyl-methyl-amino)-5-(2-thiophen-2-yl-pyrrolidine-1-carbonyl)-benzamide] returned an IC50 of 11 nM. Against the preceding molecule, the IC50 is about 4.5-fold lower.

`Cc1cc(C(=O)N[C@@H](Cc2ccccc2)[C@H](O)CNCc2cccc(OC(F)(F)F)c2)cc(C(=O)N2CCCC2c2cccs2)c1` (stereo partly drawn) [Example 46, N-[(1S,2R)-1-Benzyl-2-hydroxy-3-(3-trifluoromethoxy-benzylamino)-propyl]-3-methyl-5-(2-thiophen-2-yl-pyrrolidine-1-carbonyl)-benzamide]: the IC50 came out at 1 nM.

`Cc1cc(C(=O)N[C@@H](Cc2ccccc2)[C@H](O)CNCc2cccc(OC(F)(F)F)c2)cc(C(=O)N(C)Cc2nc(C)cs2)c1` [Example 47, N-[(1S,2R)-1-Benzyl-2-hydroxy-3-(3-trifluoromethoxy-benzylamino)-propyl]-5,N′-dimethyl-N′-(4-methyl-thiazol-2-ylmethyl)-isophthalamide] returned an IC50 of 117 nM. This IC50 lies about 120-fold higher than the previous one.

With `Cc1csc([C@H]2CCCN2C(=O)c2cc(C(=O)N[C@@H](Cc3ccccc3)[C@H](O)CNCc3cccc(C(F)(F)F)c3)cc(N(C)S(C)(=O)=O)c2)n1` [Example 48, N-[(1S,2R)-1-Benzyl-2-hydroxy-3-(3-trifluoromethyl-benzylamino)-propyl]-3-(methanesulfonyl-methyl-amino)-5-[(R)-2-(4-methyl-thiazol-2-yl)-pyrrolidine-1-carbonyl]-benzamide], the IC50 was found to be 81 nM.

`Cc1cc(C(=O)N[C@@H](Cc2ccccc2)[C@H](O)CNCc2cccc(C(F)(F)F)c2)cc(C(=O)N2CCC[C@@H]2c2nc(C)cs2)c1` [Example 49, N-[(1S,2R)-1-Benzyl-2-hydroxy-3-(3-trifluoromethyl-benzylamino)-propyl]-3-methyl-5-[(R)-2-(4-methyl-thiazol-2-yl)-pyrrolidine-1-carbonyl]-benzamide] displayed an IC50 of 119 nM. The IC50 values of the last two molecules are within 1.5-fold of each other.

The molecule `Cc1cc(C(=O)N[C@@H](Cc2ccccc2)[C@H](O)CNCc2cccc(C(F)(F)F)c2)cc(C(=O)N2CCCC2c2ccccc2)c1` (stereo partly drawn) [Example 51, N-[(1S,2R)-1-Benzyl-2-hydroxy-3-(3-trifluoromethyl-benzylamino)-propyl]-3-methyl-5-(2-phenyl-pyrrolidine-1-carbonyl)-benzamide] showed an IC50 of 0.4 nM. This IC50 is about 300-fold lower than that of the molecule before.

On to `Cc1cc(C(=O)N[C@@H](Cc2ccccc2)[C@H](O)CNCc2cccc(C(F)(F)F)c2)cc(C(=O)N(C)Cc2ccccn2)c1` [Example 52, N-[(1S,2R)-1-Benzyl-2-hydroxy-3-(3-trifluoromethyl-benzylamino)-propyl]-5,N′-dimethyl-N′-pyridin-2-ylmethyl-isophthalamide], for which half-maximal inhibition (IC50) was put at 95 nM.

For the molecule `CN(c1cc(C(=O)N[C@@H](Cc2ccccc2)[C@H](O)CNCc2cccc(C(F)(F)F)c2)cc(C(=O)N2CCCC2c2cccs2)c1)S(C)(=O)=O` (stereo partly drawn) [Example 53, N-[(1S,2R)-1-Benzyl-2-hydroxy-3-(3-trifluoromethyl-benzylamino)-propyl]-3-(methanesulfonyl-methyl-amino)-5-(2-thiophen-2-yl-pyrrolidine-1-carbonyl)-benzamide], the half-maximal inhibitory concentration (IC50) was determined as 29 nM.

Molecule `Cc1cc(C(=O)N[C@@H](Cc2ccccc2)[C@H](O)CNCc2cccc(C(F)(F)F)c2)cc(C(=O)N2CCCC2c2cccs2)c1` (stereo partly drawn) [Example 54, N-[(1S,2R)-1-Benzyl-2-hydroxy-3-(3-trifluoromethyl-benzylamino)-propyl]-3-methyl-5-(2-thiophen-2-yl-pyrrolidine-1-carbonyl)-benzamide] gave an IC50 of 1.9 nM. Against the preceding molecule, the IC50 is about 15-fold lower.

The molecule `Cc1ccc(C2CCCN2C(=O)c2cccc(C(=O)N[C@@H](Cc3ccccc3)[C@H](O)CNCc3cccc(C(F)(F)F)c3)c2)cc1` (stereo partly drawn) [Example 55, N-[(1S,2R)-1-Benzyl-2-hydroxy-3-(3-trifluoromethyl-benzylamino)-propyl]-3-(2-p-tolyl-pyrrolidine-1-carbonyl)-benzamide] displayed an IC50 of 42 nM.

`COc1ccc(C2CCCN2C(=O)c2cccc(C(=O)N[C@@H](Cc3ccccc3)[C@H](O)CNCc3cccc(C(F)(F)F)c3)c2)cc1` (stereo partly drawn) [Example 56, N-[(1S,2R)-1-Benzyl-2-hydroxy-3-(3-trifluoromethyl-benzylamino)-propyl]-3-[2-(4-methoxy-phenyl)-pyrrolidine-1-carbonyl]-benzamide] returned an IC50 of 115 nM.

The molecule `O=C(N[C@@H](Cc1ccccc1)[C@H](O)CNCc1cccc(C(F)(F)F)c1)c1cccc(C(=O)N2CCCC2c2cccc(Cl)c2)c1` (stereo partly drawn) [Example 57, N-[(1S,2R)-1-Benzyl-2-hydroxy-3-(3-trifluoromethyl-benzylamino)-propyl]-3-[2-(3-chloro-phenyl)-pyrrolidine-1-carbonyl]-benzamide] gave an IC50 of 619 nM.

With `Cc1cccc(C2CCCN2C(=O)c2cccc(C(=O)N[C@@H](Cc3ccccc3)[C@H](O)CNCc3cccc(C(F)(F)F)c3)c2)c1` (stereo partly drawn) [Example 58, N-[(1S,2R)-1-Benzyl-2-hydroxy-3-(3-trifluoromethyl-benzylamino)-propyl]-3-(2-m-tolyl-pyrrolidine-1-carbonyl)-benzamide], the IC50 was found to be 89 nM.

Consider `O=C(N[C@@H](Cc1ccccc1)[C@H](O)CNCc1cccc(C(F)(F)F)c1)c1cccc(C(=O)N2CCCC2c2ccc(F)c(Cl)c2)c1` (stereo partly drawn) [Example 59, N-[(1S,2R)-1-Benzyl-2-hydroxy-3-(3-trifluoromethyl-benzylamino)-propyl]-3-[2-(3-chloro-4-fluoro-phenyl)-pyrrolidine-1-carbonyl]-benzamide], for which the midpoint of inhibition, the IC50, lay at 33 nM.

Molecule `Cc1cc(C2CCCN2C(=O)c2cccc(C(=O)N[C@@H](Cc3ccccc3)[C@H](O)CNCc3cccc(C(F)(F)F)c3)c2)ccc1Cl` (stereo partly drawn) [Example 60, N-[(1S,2R)-1-Benzyl-2-hydroxy-3-(3-trifluoromethyl-benzylamino)-propyl]-3-[2-(4-chloro-3-methyl-phenyl)-pyrrolidine-1-carbonyl]-benzamide] returned an IC50 of 267 nM.

As for `CCc1ccc(C2CCCN2C(=O)c2cccc(C(=O)N[C@@H](Cc3ccccc3)[C@H](O)CNCc3cccc(C(F)(F)F)c3)c2)cc1` (stereo partly drawn) [Example 62, N-[(1S,2R)-1-Benzyl-2-hydroxy-3-(3-trifluoromethyl-benzylamino)-propyl]-3-[2-(4-ethyl-phenyl)-pyrrolidine-1-carbonyl]-benzamide], the IC50 is 764 nM.

The molecule `CC1CCN(C(=O)c2cccc(C(=O)N[C@@H](Cc3ccccc3)[C@H](O)CNCc3cccc(C(F)(F)F)c3)c2)C1c1ccc(F)cc1` (stereo partly drawn) [Example 63, N-[(1S,2R)-1-Benzyl-2-hydroxy-3-(3-trifluoromethyl-benzylamino)-propyl]-3-[2-(4-fluoro-phenyl)-3-methyl-pyrrolidine-1-carbonyl]-benzamide] came in with an IC50 of 1 nM.

The values are drawn from patent publication US20120053200A1, “BACE 2 INHIBITORS” (priority 2010, published 2012).
